Results reported in patent US20260091026A1, “METHODS OF TREATING INFLAMMATORY DISEASES” (INTERLINE THERAPEUTICS, INC., priority 2023, published 2026).

Assays:
RIPK2 (KD)/XIAP (BIR2) = target: T1, RIPK2 (KD)/XIAP (BIR2) (Homo sapiens, UniProt O43353); test: RIPK2-XIAP binding competition PPI assay (TR-FRET); details: for Emax: 50 nM of GSK583 = -100% activity, read-out: PPI Amax; for IC50: GST-RIPK2 / His-XIAP (BIR2)-avi, 120 min at 23° C.
T1 construct: made in house; host or cells: baculovirus-infected Sf9 cells
T1 sequence (O43353 1-310): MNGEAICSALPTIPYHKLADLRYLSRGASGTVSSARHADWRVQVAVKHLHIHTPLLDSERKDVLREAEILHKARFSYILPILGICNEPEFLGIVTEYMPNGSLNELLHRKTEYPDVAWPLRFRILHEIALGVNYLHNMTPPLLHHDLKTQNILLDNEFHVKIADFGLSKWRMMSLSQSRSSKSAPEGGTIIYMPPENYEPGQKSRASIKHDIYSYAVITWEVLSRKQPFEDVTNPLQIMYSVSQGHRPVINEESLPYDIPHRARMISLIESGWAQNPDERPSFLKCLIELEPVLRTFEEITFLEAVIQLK
Source text: The ability of selected compounds of Formula (I) to inhibit the binding of an His-XIAP (BIR2)-avi fusion protein to a GST-RIPK2 fusion protein was quantified employing the TR-FRET-based competition assay as described in the following paragraphs.
Recombinant fusion protein of N-terminal Glutathione-S-Transferase (GST) and a fragment of human RIPK2 (amino acids 1-310 of accession number 043353), expressed in baculovirus infected Sf9 cells, purified via glutathione affinity chromatography, was used as GST-RIPK2 fusion protein. Recombinant fusion protein of N-terminal 6xHistidine (His), a fragment of human XIAP (amino acids 152-231 of accession number P98170), and C-terminal avi tag, expressed in baculovirus infected Sf9 cells, purified via Nickel NTA affinity chromatography, was used as the His-XIAP (BIR2)-avi fusion protein.
For the assay, a working solution of 1 nM GST-RIPK2, 25 nM His-XIAP (BIR2)-avi, 6 nM Anti-His-XL665 […] (Revvity Catalogue No. 61HISXLB), and 0.5 nM Anti-GST-Tb(Revvity Catalogue No. 61GSTTLB) in 25 mM Tris-HCl 7.5, 0.5 mM ethylene glycol-bis(2-aminoethylether)-N,N,N′,N′-tetraacetic acid (EGTA), 10 mM magnesium chloride (MgCl2), 2.5 mM dithiothreitol (DTT), 0.01% (w/v) bovine serum albumin (BSA), 0.005% (w/v) Pluronic F-127 (Sigma), 0.5 mM sodium ortho-vanadate, 5 mM-Glycerophosphate disodium salt hydrate (BGP) was prepared. 50 nL of a 100-fold concentrated solution of each test compound in DMSO was dispensed via acoustic dispensing into a white low volume 384-well microtiter plate (Perkin Elmer Catalogue No. 6008280). Subsequently, 5 μL of the assay working solution were added.
The resulting mixture was incubated 120 min at 23° C. Subsequently, the amount of complex formed by the GST-RIPK2, XIAP (BIR2)-avi, Anti-His-XL665, and Anti-GST-Tb was evaluated by measurement of the resonance energy transfer from the Tb-cryptate to the XL665. Therefore, the fluorescence emissions at 520 nm and 665 nm after excitation at 337 nm were measured in a TR-FRET reader, e.g. a Pherastar FS(BMG Labtechnologies, Offenburg, Germany) or an Envision (PerkinElmer). The ratio of the emissions at 665 nm and at 520 nm was taken as the measure of the amount of the complex. The data were normalized (assay reaction without inhibitor=0% activity, 50 nM of GSK583=−100% activity).

[1] = test system: THP1-Dual cells, NF-κB pathway (SEAP); test: THP-1 Dual cell SEAP assay (L18-MDP stimulated); format: cell-based; details: Homo sapiens, 10 ng/mL L18-MDP, 20-24 h, SEAP readout, read-out: IFNγ THP1 IC50
Description: THP1-Dual™ cells (InvivoGen Cat #thpd-nfis) allow simultaneous assessment of the NF-κB pathway, by monitoring the activity of secreted embryonic alkaline phosphatase (SEAP) as well as the IRF pathway, by assessing the activity of a secreted luciferase (Lucia). Cells were cultured according to manufacturers' recommendations. For the assay, cell concentration was adjusted to 7.14×10^5 cells/mL in assay media (RPMI 1640, 2 mM L-Glutamine, 25 mM HEPES, 10% fetal bovine serum (heat-inactivated for 30 min at 56° C.), Pen-Strep (100 U/mL)) and 35 μL of cell suspension (˜25,000 cells) per well were added to a flat bottom 384-well plate (white opaque). Plate was centrifuged at 300 g for 2 min, compounds were added in serial dilution series according to the plate layout (volumes ˜500 nL-0.0152 nL) and plate was incubated at 37° C. in 5% CO2 for 30 min. Using assay media, a L18-MDP stock solution, that results in a final concentration of 10 ng/mL L18-MDP in each well when adding 15 μL to each well, was prepared. 15 μL of L18-MDP stock solution was added to each well, while 15 μL of assay media was added to the negative control wells. Plates were subsequently incubated at 37° C. in 5% CO2 overnight (20-24 h).
For the SEAP assay: without disturbing the cells at the bottom of the well, 15 μL supernatant was transferred to a clear 384-well flat bottom plate and 35 μL QUANTI-Blue Solution per well was added. Following a 2 h incubation at 37° C., the optical density (OD) was measured at 620-655 nm using a microplate reader (PheraStar FS microplate reader with protocol for OD 620-655 nm).
Values of media-only wells were subtracted and % inhibition for each compound concentration relative to the DMSO/L18-MDP-treated controls was calculated. Inhibition values+/−SD were fitted by non-linear regression using Prism software (GraphPad PRISM Software) to calculate IC50 values.

Row | Structure (SMILES) | Emax (RIPK2 (KD)/XIAP (BIR2)) | IC50 (RIPK2 (KD)/XIAP (BIR2)) | IC50 [1]
1 | COc1cc2ncc(-c3cc(C(=O)NCC4CCCCC4)n(C)n3)n2cc1S(=O)(=O)C(C)(C)C [Example 41, 3-(6-(tert-butylsulfonyl)-7-methoxyimidazo[1,2-a]pyridin-3-yl)-N-(cyclohexylmethyl)-1-methyl-1H-pyrazole-5-carboxamide] | ≥ 80% | 100 to 1000 nM | > 2500 nM
2 | COc1cc2ncc(-c3cc(C(=O)N[C@H](C)c4ccccn4)n(C)n3)n2cc1S(=O)(=O)C(C)(C)C [Example 42, (R)-3-(6-(tert-butylsulfonyl)-7-methoxyimidazo[1,2-a]pyridin-3-yl)-1-methyl-N-(1-(pyridin-2-yl)ethyl)-1H-pyrazole-5-carboxamide] | ≥ 80% | 10 to 100 nM | 100 to 500 nM
3 | COc1cc2ncc(-c3cc(C(=O)NCc4[nH]ncc4C)n(C)n3)n2cc1S(=O)(=O)C(C)(C)C [Example 43, 3-(6-(tert-butylsulfonyl)-7-methoxyimidazo[1,2-a]pyridin-3-yl)-1-methyl-N-((4-methyl-1H-pyrazol-5-yl)methyl)-1H-pyrazole-5-carboxamide] | ≥ 80% | 100 to 1000 nM | > 2500 nM
4 | COc1cc2ncc(-c3cc(C(=O)NCc4cn(C)cn4)n(C)n3)n2cc1S(=O)(=O)C(C)(C)C [Example 44, 3-(6-(tert-butylsulfonyl)-7-methoxyimidazo[1,2-a]pyridin-3-yl)-1-methyl-N-((1-methyl-1H-imidazol-4-yl)methyl)-1H-pyrazole-5-carboxamide] | ≥ 80% | 100 to 1000 nM | > 2500 nM
5 | COc1cc2ncc(-c3cc(C(=O)NCc4cc(C)n[nH]4)n(C)n3)n2cc1S(=O)(=O)C(C)(C)C [Example 45, 3-(6-(tert-butylsulfonyl)-7-methoxyimidazo[1,2-a]pyridin-3-yl)-1-methyl-N-((3-methyl-1H-pyrazol-5-yl)methyl)-1H-pyrazole-5-carboxamide] | ≥ 80% | 10 to 100 nM | > 2500 nM
6 | COc1cc2ncc(-c3cc(C(=O)NCc4ccc(F)cn4)n(C)n3)n2cc1S(=O)(=O)C(C)(C)C [Example 46, 3-(6-(tert-butylsulfonyl)-7-methoxyimidazo[1,2-a]pyridin-3-yl)-N-((5-fluoropyridin-2-yl)methyl)-1-methyl-1H-pyrazole-5-carboxamide] | ≥ 80% | 100 to 1000 nM | > 2500 nM
7 | COc1cc2ncc(-c3cc(C(=O)N[C@H](C)c4ccccn4)n(C)n3)n2cc1C1(F)CCN(C)CC1 [Example 47, (R)-3-(6-(4-fluoro-1-methylpiperidin-4-yl)-7-methoxyimidazo[1,2-a]pyridin-3-yl)-1-methyl-N-(1-(pyridin-2-yl)ethyl)-1H-pyrazole-5-carboxamide] | ≥ 80% | 10 to 100 nM | 500 to 2500 nM
8 | COc1cc2ncc(-c3cc(C(=O)N[C@H](C)c4ccc(F)cn4)n(C)n3)n2cc1S(=O)(=O)C(C)(C)C [Example 48, (R)-3-(6-(tert-butylsulfonyl)-7-methoxyimidazo[1,2-a]pyridin-3-yl)-N-(1-(5-fluoropyridin-2-yl)ethyl)-1-methyl-1H-pyrazole-5-carboxamide] | ≥ 80% | 10 to 100 nM | 500 to 2500 nM
9 | COc1cc2ncc(-c3cc(C(=O)NCc4ncccc4F)n(C)n3)n2cc1S(=O)(=O)C(C)(C)C [Example 49, 3-(6-(tert-butylsulfonyl)-7-methoxyimidazo[1,2-a]pyridin-3-yl)-N-((3-fluoropyridin-2-yl)methyl)-1-methyl-1H-pyrazole-5-carboxamide] | ≥ 80% | 10 to 100 nM | 500 to 2500 nM
10 | COc1cc2ncc(-c3cc(C(=O)N[C@H](C)c4ncccc4F)n(C)n3)n2cc1S(=O)(=O)C(C)(C)C [Example 50, (R)-3-(6-(tert-butylsulfonyl)-7-methoxyimidazo[1,2-a]pyridin-3-yl)-N-(1-(3-fluoropyridin-2-yl)ethyl)-1-methyl-1H-pyrazole-5-carboxamide] | ≥ 80% | 10 to 100 nM | 100 to 500 nM
11 | COc1cc2ncc(-c3cc(C(=O)N[C@@H](C)c4ncccc4F)n(C)n3)n2cc1S(=O)(=O)C(C)(C)C [Example 51, (S)-3-(6-(tert-butylsulfonyl)-7-methoxyimidazo[1,2-a]pyridin-3-yl)-N-(1-(3-fluoropyridin-2-yl)ethyl)-1-methyl-1H-pyrazole-5-carboxamide] | 55 to 80% | > 1000 nM | > 2500 nM
12 | COc1cc2ncc(-c3cc(C(=O)NCc4cccc(F)n4)n(C)n3)n2cc1S(=O)(=O)C(C)(C)C [Example 52, 3-(6-(tert-butylsulfonyl)-7-methoxyimidazo[1,2-a]pyridin-3-yl)-N-((6-fluoropyridin-2-yl)methyl)-1-methyl-1H-pyrazole-5-carboxamide] | ≥ 80% | 100 to 1000 nM | > 2500 nM
13 | COc1cc2ncc(-c3cc(C(=O)NCc4cc(F)ccn4)n(C)n3)n2cc1S(=O)(=O)C(C)(C)C [Example 53, 3-(6-(tert-butylsulfonyl)-7-methoxyimidazo[1,2-a]pyridin-3-yl)-N-((4-fluoropyridin-2-yl)methyl)-1-methyl-1H-pyrazole-5-carboxamide] | ≥ 80% | 100 to 1000 nM | > 2500 nM
14 | COc1cc2ncc(-c3cc(C(=O)NCc4ncc(F)cc4F)n(C)n3)n2cc1S(=O)(=O)C(C)(C)C [Example 54, 3-(6-(tert-butylsulfonyl)-7-methoxyimidazo[1,2-a]pyridin-3-yl)-N-((3,5-difluoropyridin-2-yl)methyl)-1-methyl-1H-pyrazole-5-carboxamide] | ≥ 80% | 100 to 1000 nM | 500 to 2500 nM
15 | COc1cc2ncc(-c3cc(C(=O)NC4(c5ncccn5)CC4)n(C)n3)n2cc1S(=O)(=O)C(C)(C)C [Example 55, 3-(6-(tert-butylsulfonyl)-7-methoxyimidazo[1,2-a]pyridin-3-yl)-1-methyl-N-(1-(pyrimidin-2-yl)cyclopropyl)-1H-pyrazole-5-carboxamide] | 30 to 55% | > 1000 nM | > 2500 nM
16 | COc1cc2ncc(-c3cc(C(=O)N[C@H](C)c4cn(C)cn4)n(C)n3)n2cc1S(=O)(=O)C(C)(C)C [Example 56, (R)-3-(6-(tert-butylsulfonyl)-7-methoxyimidazo[1,2-a]pyridin-3-yl)-1-methyl-N-(1-(1-methyl-1H-imidazol-4-yl)ethyl)-1H-pyrazole-5-carboxamide] | ≥ 80% | 100 to 1000 nM | > 2500 nM
17 | COc1cc2ncc(-c3cc(C(=O)N[C@@H](C)c4cn(C)cn4)n(C)n3)n2cc1S(=O)(=O)C(C)(C)C [Example 57, (S)-3-(6-(tert-butylsulfonyl)-7-methoxyimidazo[1,2-a]pyridin-3-yl)-1-methyl-N-(1-(1-methyl-1H-imidazol-4-yl)ethyl)-1H-pyrazole-5-carboxamide] | ≥ 80% | > 1000 nM | > 2500 nM
